Test results from patent publication US20210154359A1, “FIBRILLAR-PROTEIN BASED COMPOSITIONS AND USES THEREOF” (Hi-Aspect Limited, priority 2017, published 2021).
Values after ≈ are worked out from the molar mass of the structure shown. Read-outs that look alike come from different tables or passages of the source. One block for each compound: values may come before it.

Experiments:
[1] = Loading capacity of protein composition C with hydrophilic and hydrophobic agents; assay type: physicochemical; conditions: in protein composition C, room temperature
[2] = test system: 3T3; assay: In Vitro 3T3 NRU Phototoxicity Test (OECD 432); assay type: cell-based; conditions: for IC50: Mus musculus, NIH3T3, light or radiation study
[3] = agent in water, in words; cited from earlier work
[4] = loading trial to date, not maximum loading
[5] = read-out: Cell Viability IC50 Minus UVA
[6] = read-out: Cell Viability IC50 Plus UVA

Loading ([1]; maximum loading): 350 mg/g
Compound: O=C1O[C@H]([C@@H](O)CO)C(O)=C1O [Ascorbic acid]

Compound: O=C(O)c1ccccc1 [Benzoic acid]
Loading [1, 4]: 10 mg/g

Compound: Cn1c(=O)c2c(ncn2C)n(C)c1=O [Caffeine]
Loading ([1]; maximum loading): 350 mg/g

Compound: CN(C)CCCN1c2ccccc2Sc2ccc(Cl)cc21 [Chlorpromazine]
Comment (phototoxicity) [2]: Phototoxic | Mean MPE [2]: 0.510 | Mean PIF [2]: 70 | IC50 [2, 5]: 7 µg/mL (≈ 22 µM) | IC50 [2, 6]: 0.1 µg/mL

Compound: N[C@@H](Cc1c[nH]cn1)C(=O)O [Histidine]
Mean MPE [2]: −0.016 | Mean PIF [2]: 1.0 | IC50 [2, 5]: > 1000 µg/mL | IC50 [2, 6]: > 1000 µg/mL

Loading [1, 4]: 10 mg/g
Compound: CN(C)c1ccc2nc3ccc(=[N+](C)C)cc-3sc2c1 [Methylene blue]

Compound: C=C[C@H]1C[N@@]2CC[C@H]1C[C@H]2[C@H](O)c1ccnc2ccc(OC)cc12 [Quinine sulphate]
Loading [1, 4]: 10 mg/g

Loading [1, 4]: 1 mg/g
Compound: CC1=C(/C=C/C(C)=C/C=C/C(C)=C/C=O)C(C)(C)CCC1 [Retinal]
Solubility (water) [3]: Nearly insoluble

Loading [1, 4]: 25 mg/g
Compound: CCCCCCCCCCCCCCCC(=O)OC/C=C(C)/C=C/C=C(C)/C=C/C1=C(C)CCCC1(C)C [Retinyl palmitate]
Solubility (water) [3]: Insoluble

Compound: N[C@@H](Cc1c[nH]c2ccccc12)C(=O)O [Tryptophan]
Loading ([1]; maximum loading): 350 mg/g
